Results: publication PMC2870997 (Bioorganic & medicinal chemistry letters, 2009)

Tested on: PKA reporter Reg-F[1]:Cat-F[2]
Experiment: Protein-fragment complementation
Format: cell-based
Settings: β2AR-HEK293 cells

## CC(C)NCC(O)c1ccc(O)c(O)c1 (centres unmarked) [Analogue 19, isoproterenol]
1 μM, 30 min
  Effect on luminescence by β2AR activation (control): able to reduce luminescence

## Cc1ccc(OCC(O)C(C)NC(C)C)c2c1CCC2 (centres unmarked) [Analogue 20, IC118551]
1 μM pretreatment
  Effect of pretreatment on the response to 19 (control): capable of preventing the effects of 19
